Test results: PubChem BioAssay (NCI)
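Method: 48-hour compound exposure of cells in 96-well plates, five concentrations, linear interpolation of endpoints. The concentration for 50% growth inhibition is given as GI50. TGI is the concentration that stops growth completely.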

Key:
Test in all cases: NCI tumour cell line growth inhibition, 48 h
[1] = test system: HS 578T breast
[2] = test system: MDA-MB-468 breast
[3] = test system: EKVX NSCLC
[4] = test system: SNB-19 CNS
[5] = test system: RXF 393 renal
[6] = test system: NCI-H460 lung
[7] = test system: SF-295 CNS
[8] = test system: ACHN renal
[9] = test system: SR leukemia
[10] = test system: HL-60(TB) leukemia
[11] = test system: 786-0 renal
[12] = test system: OVCAR-8 ovarian
[13] = test system: UO-31 renal
[14] = test system: PC-3 prostate
[15] = test system: OVCAR-4 ovarian
[16] = test system: LOX IMVI melanoma
[17] = test system: SK-OV-3 ovarian
[18] = test system: SK-MEL-28 melanoma
[19] = test system: KM12 colon
[20] = test system: M14 melanoma
[21] = test system: HCT-116 colon
[22] = test system: COLO 205 colon
[23] = test system: NCI-H226 lung
[24] = test system: BT-549 breast
[25] = test system: UACC-257 melanoma
[26] = test system: SN12C renal
[27] = test system: NCI-H522 lung
[28] = test system: SW-620 colon
[29] = test system: UACC-62 melanoma
[30] = test system: RPMI-8226 leukemia
[31] = test system: CCRF-CEM leukemia
[32] = test system: MALME-3M melanoma
[33] = test system: A498 renal
[34] = test system: OVCAR-3 ovarian
[35] = test system: HT29 colon
[36] = test system: MDA-MB-435
[37] = test system: SK-MEL-5 melanoma
[38] = test system: HCT-15 colon
[39] = test system: MDA-MB-231 breast
[40] = test system: SK-MEL-2 melanoma
[41] = test system: A549 NSCLC
[42] = test system: HCC-2998 colon
[43] = test system: OVCAR-5 ovarian
[44] = test system: T-47D breast
[45] = test system: DU-145 prostate
[46] = test system: MCF7 breast
[47] = test system: HOP-92 NSCLC
[48] = test system: CAKI-1 renal
[49] = test system: MOLT-4 leukemia
[50] = test system: SF-268 CNS
[51] = test system: SF-539 CNS
[52] = test system: U251 CNS
[53] = test system: IGROV1 ovarian
[54] = test system: K-562 leukemia
[55] = test system: NCI-H23 lung
[56] = test system: TK-10 renal
[57] = test system: HOP-62 NSCLC

Cn1cc(-c2cc3nc(-c4cn(C)c5ncc(Br)cc45)cc(N)n3n2)c2cc(F)ccc21
GI50 [1]: 10.7 µM
TGI [1]: 48.6 µM
GI50 [2]: 1.95 µM
TGI [2]: 4.19 µM
GI50 [3]: 11.4 µM
TGI [3]: 29.7 µM
GI50 [4]: 11 µM
TGI [4]: 23.8 µM
GI50 [5]: 2.54 µM
TGI [5]: 5.96 µM
GI50 [6]: 3.44 µM
TGI [6]: 11.6 µM
GI50 [7]: 1.8 µM
TGI [7]: 3.82 µM
GI50 [8]: 3.72 µM
TGI [8]: 13.2 µM
GI50 [9]: 4.58 µM
TGI [9]: > 100 µM
GI50 [10]: 12.1 µM
TGI [10]: 73.1 µM
GI50 [11]: 4.64 µM
TGI [11]: 17 µM
GI50 [12]: 6.2 µM
TGI [12]: 20.9 µM
GI50 [13]: 12.2 µM
TGI [13]: 25.4 µM
GI50 [14]: 10.4 µM
TGI [14]: 46.8 µM
GI50 [15]: 4.51 µM
TGI [15]: 19.3 µM
GI50 [16]: 1.91 µM
TGI [16]: 3.47 µM
GI50 [17]: 15 µM
TGI [17]: 32.4 µM
GI50 [18]: 3.9 µM
TGI [18]: 14.4 µM
GI50 [19]: 12.9 µM
TGI [19]: 49 µM
GI50 [20]: 4.05 µM
TGI [20]: 14.9 µM
GI50 [21]: 15 µM
TGI [21]: 32.3 µM
GI50 [22]: 12.6 µM
TGI [22]: 40.7 µM
GI50 [23]: 5.36 µM
TGI [23]: 19.8 µM
GI50 [24]: 10.9 µM
TGI [24]: 23.6 µM
GI50 [25]: 7.29 µM
TGI [25]: 21.4 µM
GI50 [26]: 4.41 µM
TGI [26]: 19.8 µM
GI50 [27]: 5.61 µM
TGI [27]: 21.6 µM
GI50 [28]: 6.46 µM
TGI [28]: 21.5 µM
GI50 [29]: 2.64 µM
TGI [29]: 10.9 µM
GI50 [30]: 10.1 µM
TGI [30]: > 100 µM
GI50 [31]: 8.29 µM
TGI [31]: > 100 µM
GI50 [32]: 3.43 µM
TGI [32]: 12.1 µM
GI50 [33]: 13.5 µM
TGI [33]: 30.2 µM
GI50 [34]: 11.1 µM
TGI [34]: 27 µM
GI50 [35]: 3.18 µM
TGI [35]: 11.3 µM
GI50 [36]: 6.19 µM
TGI [36]: 20.1 µM
GI50 [37]: 12.5 µM
TGI [37]: 25.4 µM
GI50 [38]: 3.73 µM
TGI [38]: 16.4 µM
GI50 [39]: 2.9 µM
TGI [39]: 10 µM
GI50 [40]: 11.4 µM
TGI [40]: 24.2 µM
GI50 [41]: 3.37 µM
TGI [41]: 16.8 µM
GI50 [42]: 7.19 µM
TGI [42]: 27.6 µM
GI50 [43]: 12.5 µM
TGI [43]: 29.4 µM
GI50 [44]: 3.25 µM
TGI [44]: 15.6 µM
GI50 [45]: 5.16 µM
TGI [45]: 19.3 µM
GI50 [46]: 3.6 µM
TGI [46]: 12.8 µM
GI50 [47]: 11.3 µM
TGI [47]: 33.8 µM
GI50 [48]: 8.11 µM
TGI [48]: 22.5 µM
GI50 [49]: 5.98 µM
TGI [49]: > 100 µM
GI50 [50]: 19.2 µM
TGI [50]: 79.8 µM
GI50 [51]: 3.54 µM
TGI [51]: 13 µM
GI50 [52]: 3.23 µM
TGI [52]: 11.5 µM
GI50 [53]: 3.91 µM
TGI [53]: 14.1 µM
GI50 [54]: 6 µM
TGI [54]: > 100 µM
GI50 [55]: 7.44 µM
TGI [55]: 21.3 µM
GI50 [56]: 4.92 µM
TGI [56]: 18.8 µM
GI50 [57]: 7.8 µM
TGI [57]: 24.3 µM

CO[C@H]1/C=C/C[C@H](C)[C@@H](C)S(=O)(=O)NC(=O)c2ccc3c(c2)N(C[C@@H]2CC[C@H]21)C[C@@]1(CCCc2cc(Cl)ccc21)CO3
GI50 [2]: 0.166 µM
TGI [2]: 0.55 µM

COc1cc(/C=N/O)nc(-c2ccccn2)c1
GI50 [2]: 0.307 µM
TGI [2]: 1.7 µM

CCCCc1oc2ccccc2c1C(=O)c1cc(I)c(OCCN(CC)CC)c(I)c1
GI50 [2]: 1.49 µM
TGI [2]: 3.12 µM

COc1cccc2cc(N(C)c3nc(C)nc4ccsc34)ccc12
GI50 [2]: < 0.01 µM

CN(C)CCN1C(=O)c2cccc3c(-c4ccc5ncn(C6CCCCC6)c5c4)ccc(c23)C1=O
GI50 [2]: 1.74 µM
TGI [2]: 4.33 µM
